According to patent US20110172147A1, “NEUROPEPTIDE-2 RECEPTOR (Y-2R) AGONISTS” (priority 2009, published 2011):

Tests used:
Assay type in all cases: cell-based
[1] = target: T1, hNPY2R (Homo sapiens, UniProt P49146); experiment: CaFlux Assay (FLIPR), Y2R; set-up: expressed in transfected cells; host or cells: HEK-293 stably transfected with G protein chimera Gαqi9
T1 sequence (P49146 1-381): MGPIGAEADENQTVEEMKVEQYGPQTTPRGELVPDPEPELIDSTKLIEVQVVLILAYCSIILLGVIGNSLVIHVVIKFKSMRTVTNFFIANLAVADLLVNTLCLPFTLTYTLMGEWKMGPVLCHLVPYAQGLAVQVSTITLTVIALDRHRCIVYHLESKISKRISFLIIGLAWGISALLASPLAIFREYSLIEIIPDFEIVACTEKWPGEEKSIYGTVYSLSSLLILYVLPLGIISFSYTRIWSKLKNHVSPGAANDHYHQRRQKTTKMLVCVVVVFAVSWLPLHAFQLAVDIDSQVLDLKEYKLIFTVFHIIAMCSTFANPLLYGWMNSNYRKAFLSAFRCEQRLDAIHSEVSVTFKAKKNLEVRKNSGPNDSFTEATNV
In short: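 Intracellular calcium mobilisation was measured in HEK-293 cells engineered with Gαqi9 and the relevant receptor; responses were normalised as % of maximal positive-control signal.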

[2] = target: T1, hNPY2R; experiment: cAMP Agonist Assay, HEK293/hNPY2R; set-up: expressed in transfected cells; host or cells: HEK293/hNPY2R (G418 selection)
In short: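 Intracellular cAMP quantified by luminescent competitive ELISA after a 30 min room-temperature treatment of overnight-plated HEK293/hNPY2R cells with compound in medium containing 5 μM forskolin, 0.5 mM IBMX and 1.1% DMSO; four replicates per concentration.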

[3] = target: T2, Y1R (Homo sapiens, UniProt P25929); experiment: CaFlux Assay (FLIPR), Y1R
T2 sequence (P25929 1-384): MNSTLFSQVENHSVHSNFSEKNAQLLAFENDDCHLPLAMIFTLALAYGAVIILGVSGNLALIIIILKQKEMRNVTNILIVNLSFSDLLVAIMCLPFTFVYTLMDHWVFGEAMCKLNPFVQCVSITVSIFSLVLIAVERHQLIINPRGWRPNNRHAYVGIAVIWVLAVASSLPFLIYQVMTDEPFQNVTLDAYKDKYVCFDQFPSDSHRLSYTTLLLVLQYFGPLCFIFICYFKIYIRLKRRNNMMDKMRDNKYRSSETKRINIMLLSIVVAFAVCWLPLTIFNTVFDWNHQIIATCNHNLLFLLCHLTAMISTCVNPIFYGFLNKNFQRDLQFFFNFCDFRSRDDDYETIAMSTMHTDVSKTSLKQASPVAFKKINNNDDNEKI

[4] = target: Y4R (Homo sapiens, UniProt P50391); experiment: CaFlux Assay (FLIPR), Y4R
[5] = target: T3, Y5R (Homo sapiens, UniProt Q15761); experiment: CaFlux Assay (FLIPR), Y5R
T3 sequence (Q15761 1-445): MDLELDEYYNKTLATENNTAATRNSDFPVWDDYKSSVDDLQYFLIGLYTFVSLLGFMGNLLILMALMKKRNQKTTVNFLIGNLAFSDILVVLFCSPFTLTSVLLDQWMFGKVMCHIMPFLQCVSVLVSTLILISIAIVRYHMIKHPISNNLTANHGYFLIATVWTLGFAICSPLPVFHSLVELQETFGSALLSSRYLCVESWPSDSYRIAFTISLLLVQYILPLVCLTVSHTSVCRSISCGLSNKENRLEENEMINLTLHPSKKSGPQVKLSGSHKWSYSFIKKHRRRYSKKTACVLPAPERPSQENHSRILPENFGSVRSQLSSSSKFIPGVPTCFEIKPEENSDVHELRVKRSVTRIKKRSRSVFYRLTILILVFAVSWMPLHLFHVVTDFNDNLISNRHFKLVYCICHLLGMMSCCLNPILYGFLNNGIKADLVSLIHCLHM

Chain of Y4R (P50391 whole entry): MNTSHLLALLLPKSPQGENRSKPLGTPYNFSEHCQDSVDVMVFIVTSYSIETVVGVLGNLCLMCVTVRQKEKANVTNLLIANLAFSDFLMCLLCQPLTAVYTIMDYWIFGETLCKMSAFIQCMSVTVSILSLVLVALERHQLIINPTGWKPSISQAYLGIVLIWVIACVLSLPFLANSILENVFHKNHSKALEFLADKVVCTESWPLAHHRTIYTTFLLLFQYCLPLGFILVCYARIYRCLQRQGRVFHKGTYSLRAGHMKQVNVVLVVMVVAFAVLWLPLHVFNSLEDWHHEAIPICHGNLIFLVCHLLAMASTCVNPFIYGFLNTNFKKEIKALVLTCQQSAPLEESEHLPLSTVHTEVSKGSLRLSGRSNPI

With `CCCCCCCCCCCCCCCCCCCC(=O)N[C@@H](CCC(=O)N[C@@H](CCC(=O)NCCCC[C@H](NC(=O)[C@@H](NC(=O)CCOCCOCCOCCOCCOCCOCCOCCOCCOCCOCCOCCOCCOCCOCCOCCOC)[C@@H](C)CC)C(=O)N1CCN(c2ccc3ncn(CC(=O)N[C@@H](CCCNC(=N)N)C(=O)N[C@@H](Cc4c[nH]cn4)C(=O)N[C@@H](Cc4ccc(O)cc4)C(=O)N[C@@H](CC(C)C)C(=O)N[C@@H](CC(N)=O)C(=O)N[C@@H](Cc4c[nH]c5ccccc45)C(=O)N[C@H](C(=O)N[C@H](C(=O)N[C@@H](CCCNC(=N)N)C(=O)N[C@@H](CCC(N)=O)C(=O)N(C)[C@@H](CCCNC(=N)N)C(=O)N[C@@H](Cc4ccc(O)cc4)C(N)=O)[C@@H](C)O)C(C)C)c(=O)c3c2)CC1)C(=O)O)C(=O)O` [Example 25] as the molecule, how does the EC50 [1] read?
The EC50 was 0.14 nM.

What about the EC50 [2] of the same molecule?
The EC50 was 0.09 nM.

And the EC50 [3]?
Its EC50 is over 9000 nM.

And the EC50 [4]?
The EC50 was over 9000 nM.

And the EC50 [5]?
The EC50 was 2580 nM.

What about the “Y5R FLIPR agonist character (partial agonist mark)” value (“Y5R FLIPR agonist character” below) [5] of the same molecule?
The value was “P.A”.

`CCCCCCCCCCCCCCCCCCCC(=O)N[C@@H](CCC(=O)O)C(=O)N[C@@H](CCC(=O)O)C(=O)N[C@@H](C(=O)N[C@@H](CCCCNC(=O)CCOCCOCCOCCOCCOCCOCCOCCOCCOCCOCCOCCOCCOCCOCCOCCOCCOCCOCCOCCOCCOCCOCCOCCOC)C(=O)N1CCN(c2ccc3ncn(CC(=O)N[C@@H](CCCNC(=N)N)C(=O)N[C@@H](Cc4c[nH]cn4)C(=O)N[C@@H](Cc4ccc(O)cc4)C(=O)N[C@@H](CC(C)C)C(=O)N[C@@H](CC(N)=O)C(=O)N[C@@H](Cc4c[nH]c5ccccc45)C(=O)N[C@H](C(=O)N[C@H](C(=O)N[C@@H](CCCNC(=N)N)C(=O)N[C@@H](CCC(N)=O)C(=O)N(C)[C@@H](CCCNC(=N)N)C(=O)N[C@@H](Cc4ccc(O)cc4)C(N)=O)[C@@H](C)O)C(C)C)c(=O)c3c2)CC1)[C@@H](C)CC` [Example 53] was tested. Which EC50 [1] did it give?
The EC50 was 0.66 nM.

What about the EC50 [2] of the same molecule?
The EC50 was 0.56 nM.

And the EC50 [3]?
Its EC50 is over 6000 nM.

And the EC50 [4]?
Its EC50 is over 6000 nM.

What about the EC50 [5] of the same molecule?
The EC50 was over 6000 nM.

Which EC50 [1] does the source give for `CCCCCCCCCCCCCCCC(=O)NCCOCCNC(=O)CCC(=O)NCCCC[C@H](NC(=O)[C@@H](NC(=O)CCOCCOCCOCCOCCOCCOCCOCCOCCOCCOCCOCCOCCOCCOCCOCCOCCOCCOCCOCCOCCOCCOCCOCCOC)[C@@H](C)CC)C(=O)N1CCN(c2ccc3ncn(CC(=O)N[C@@H](CCCNC(N)=O)C(=O)N[C@@H](Cc4c[nH]cn4)C(=O)N[C@@H](Cc4ccc(O)cc4)C(=O)N[C@@H](CC(C)C)C(=O)N[C@@H](CC(N)=O)C(=O)N[C@@H](Cc4c[nH]c5ccccc45)C(=O)N[C@H](C(=O)N[C@H](C(=O)N[C@@H](CCCNC(=N)N)C(=O)N[C@@H](CCC(N)=O)C(=O)N(C)[C@@H](CCCNC(=N)N)C(=O)N[C@@H](Cc4ccc(O)cc4)C(N)=O)[C@@H](C)O)C(C)C)c(=O)c3c2)CC1` [Example 16] here?
The EC50 was 0.059 nM.

And the EC50 [2]?
Its EC50 is 0.09 nM.

And the EC50 [3]?
The EC50 was over 5000 nM.

What about the EC50 [4] of the same molecule?
Its EC50 is over 5000 nM.

What about the EC50 [5] of the same molecule?
The EC50 was 1360 nM.

With `CC[C@H](C)[C@H](NC(=O)CCCCCNC(=O)CCOCCOCCOCCOCCOCCOCCOCCOC)C(=O)N[C@@H](CCCCN)C(=O)N1CCN(c2ccc3ncn(CC(=O)N[C@@H](CCCNC(=N)N)C(=O)N[C@@H](Cc4c[nH]cn4)C(=O)N[C@@H](Cc4ccc(O)cc4)C(=O)N[C@@H](CC(C)C)C(=O)N[C@@H](CC(N)=O)C(=O)N[C@@H](Cc4c[nH]c5ccccc45)C(=O)N[C@H](C(=O)N[C@H](C(=O)N[C@@H](CCCNC(=N)N)C(=O)N[C@@H](CCC(N)=O)C(=O)N(C)[C@@H](CCCNC(=N)N)C(=O)N[C@@H](Cc4ccc(O)cc4)C(N)=O)[C@@H](C)O)C(C)C)c(=O)c3c2)CC1` [Example 17] as the molecule, how does the EC50 [1] read?
Its EC50 is 0.479 nM.

And the EC50 [2]?
Its EC50 is 1.4 nM.

What about the EC50 [3] of the same molecule?
The EC50 was over 6000 nM.

And the EC50 [4]?
Its EC50 is over 6000 nM.

What about the EC50 [5] of the same molecule?
The EC50 was over 6000 nM.

For `CCCCCCCCCCCCCCCCCCCC(=O)N[C@@H](CCC(=O)O)C(=O)N[C@@H](CCC(=O)O)C(=O)N[C@H](C(=O)N[C@@H](CCCCNC(=O)CCOCCOCCOCCOCCOCCOCCOCCOCCOCCOCCOCCOCCOCCOCCOCCOCCOCCOCCOCCOCCOCCOCCOCCOC)C(=O)N1CCN(c2ccc3ncn(CC(=O)N[C@@H](CCCNC(N)=O)C(=O)N[C@@H](Cc4c[nH]cn4)C(=O)N[C@@H](Cc4ccc(O)cc4)C(=O)N[C@@H](CC(C)C)C(=O)N[C@@H](CC(N)=O)C(=O)N[C@@H](Cc4c[nH]c5ccccc45)C(=O)N[C@H](C(=O)N[C@H](C(=O)N[C@@H](CCCNC(=N)N)C(=O)N[C@@H](CCC(N)=O)C(=O)N(C)[C@@H](CCCNC(=N)N)C(=O)N[C@@H](Cc4ccc(O)cc4)C(N)=O)[C@@H](C)O)C(C)C)c(=O)c3c2)CC1)[C@@H](C)CC` [Example 49], which EC50 [1] is on record?
Its EC50 is 0.098 nM.

And the EC50 [2]?
The EC50 was 0.25 nM.

What about the EC50 [3] of the same molecule?
The EC50 was over 9000 nM.

What about the EC50 [4] of the same molecule?
The EC50 was over 9000 nM.

What about the EC50 [5] of the same molecule?
The EC50 was 518 nM.

What about the “Y5R FLIPR agonist character” value [5] of the same molecule?
Its value is “P.A”.

Which results are given for `CCCCCCCCCCCCCCCC(=O)NCCCCCC(=O)NCCCCCC(=O)N[C@H](C(=O)N[C@@H](CCCCNC(=O)CCOCCOCCOCCOCCOCCOCCOCCOCCOCCOCCOCCOC)C(=O)N1CCN(c2ccc3ncn(CC(=O)N[C@@H](CCCNC(=N)N)C(=O)N[C@@H](Cc4c[nH]cn4)C(=O)N[C@@H](Cc4ccc(O)cc4)C(=O)N[C@@H](CC(C)C)C(=O)N[C@@H](CC(N)=O)C(=O)N[C@@H](Cc4c[nH]c5ccccc45)C(=O)N[C@H](C(=O)N[C@H](C(=O)N[C@@H](CCCNC(=N)N)C(=O)N[C@@H](CCC(N)=O)C(=O)N(C)[C@@H](CCCNC(=N)N)C(=O)N[C@@H](Cc4ccc(O)cc4)C(N)=O)[C@@H](C)O)C(C)C)c(=O)c3c2)CC1)[C@@H](C)CC` [Example 40]?
EC50 [1]: 0.058 nM; EC50 [2]: 0.11 nM; EC50 [3]: > 6000 nM; EC50 [4]: > 6000 nM; EC50 [5]: 820 nM

For `CCCCCCCCCCCCCCCC(=O)NCCOCCNC(=O)CCC(=O)NCCCC[C@H](NC(=O)[C@@H](NC(=O)CCOCCOCCOCCOCCOCCOCCOCCOCCOCCOCCOCCOCCOCCOCCOCCOC)[C@@H](C)CC)C(=O)N1CCN(c2ccc3ncn(CC(=O)N[C@@H](CCCNC(=N)N)C(=O)N[C@@H](Cc4c[nH]cn4)C(=O)N[C@@H](Cc4ccc(O)cc4)C(=O)N[C@@H](CC(C)C)C(=O)N[C@@H](CC(N)=O)C(=O)N[C@@H](Cc4c[nH]c5ccccc45)C(=O)N[C@H](C(=O)N[C@H](C(=O)N[C@@H](CCCNC(=N)N)C(=O)N[C@@H](CCC(N)=O)C(=O)N(C)[C@@H](CCCNC(=N)N)C(=O)N[C@@H](Cc4ccc(O)cc4)C(N)=O)[C@@H](C)O)C(C)C)c(=O)c3c2)CC1` [Example 14], which EC50 [1] is on record?
The EC50 was 0.032 nM.

What about the EC50 [2] of the same molecule?
Its EC50 is 0.08 nM.

And the EC50 [3]?
Its EC50 is over 5000 nM.

And the EC50 [4]?
Its EC50 is over 5000 nM.

And the EC50 [5]?
The EC50 was 370 nM.

What about the “Y5R FLIPR agonist character” value [5] of the same molecule?
The value was “P.A”.

With `CC[C@H](C)[C@H](NC(=O)CCCCCNC(=O)CCOCCOCCOCCOCCOCCOCCOCCOCCOCCOCCOCCOCCOCCOCCOCCOCCOCCOCCOCCOCCOCCOCCOCCOC)C(=O)N[C@@H](CCCCN)C(=O)N1CCN(c2ccc3ncn(CC(=O)N[C@@H](CCCNC(=N)N)C(=O)N[C@@H](Cc4c[nH]cn4)C(=O)N[C@@H](Cc4ccc(O)cc4)C(=O)N[C@@H](CC(C)C)C(=O)N[C@@H](CC(N)=O)C(=O)N[C@@H](Cc4c[nH]c5ccccc45)C(=O)N[C@H](C(=O)N[C@H](C(=O)N[C@@H](CCCNC(=N)N)C(=O)N[C@@H](CCC(N)=O)C(=O)N(C)[C@@H](CCCNC(=N)N)C(=O)N[C@@H](Cc4ccc(O)cc4)C(N)=O)[C@@H](C)O)C(C)C)c(=O)c3c2)CC1` [Example 20] as the molecule, how does the EC50 [1] read?
The EC50 was 0.488 nM.

What about the EC50 [2] of the same molecule?
Its EC50 is 0.89 nM.

And the EC50 [3]?
The EC50 was over 6000 nM.

And the EC50 [4]?
The EC50 was over 6000 nM.

And the EC50 [5]?
The EC50 was over 6000 nM.
